Test results: PMC6015222, “Targeting Phosphopeptide Recognition by the Human BRCA1 Tandem BRCT Domain to Interrupt BRCA1-Dependent Signaling” (Cell Chemical Biology, 2018)
Values joined by “and” are separate entries in the source; they are usually repeats but may differ in a detail not shown here. Equal values may be shown once. Each block holds one molecule with its values, some of them ahead of it. Non-standard residues stand in square brackets, D forms with d. TAMRA = tetramethylrhodamine label; pS = N[C@@H](COP(=O)(O)O)C(=O)O

Columns and labels:
[1] = Solubility in aqueous buffers; format: physicochemical
[2] = target: T1, BRCA1 tBRCT (Homo sapiens, UniProt P38398); experiment: AlphaScreen assay: displacement of cognate biotinylated phosphopeptide from BRCA1 tBRCT; details: 10-point dose response, read-out: IC50, inhibition of binding of cognate phosphopeptide to BRCA1 tBRCT
T1 construct: BRCA1 tBRCT residues 1646-1859; made in house; host or cells: E. coli BL21(DE3)
Method: We tested 6x-Histidine-tagged BRCA1 tBRCT, TOPBP1 tBRCT 7/8 or GRB2 SH2, and their cognate biotinylated peptide substrates. Initial checkerboard titrations were carried out to determine the optimal concentration of protein and peptide for each screen. Assays were conducted in Costar 96-well flat bottom white polystyrene plates using assay buffer (20mM Tris buffer pH 7.4, 200mM NaCl, 0.05% Tween-20, 2mM DTT). 5x-working concentrations of the reagents were dispensed in 10μl each in the order: 6x-Histidine tagged protein, biotinylated peptide, test compound. Plates were incubated at room temperature for 20 min and 10 μl each of nickel chelate AlphaLISA® acceptor beads and AlphaScreen® Streptavidin donor beads (both from Perkin Elmer) at a final concentration of 20 μg/ml were added. Plates were covered with adhesive seals and incubated in the dark for 1 h at 25°C. The AlphaScreen® signal was read using TECAN infinite M1000 Pro microplate reader at excitation wavelength 680nm and emission wavelength 520-620nm. 1% DMSO controls were run in parallel, and used to calculate percent inhibition. A 10-point dose response was performed in triplicate to determine IC50 values for each compound.

[3] = target: T1, BRCA1 tBRCT; experiment: Competitive MST: inhibition of BACH1 phosphopeptide binding to BRCA1 tBRCT; details: for activity in competitive MST, in words / IC50: BACH1 phosphopeptide vs BRCA1 tBRCT; for IC50: MST, mean ± SD of three experiments, NB, no binding
Method: Protein domains used in the assay were labeled with NT-647-NHS fluorescent dye using the Monolith NT™ Protein Labeling Kit (NanoTemper Technologies). Assays were carried out in 20mM Tris buffer, pH 7.4, with 200mM NaCl, 0.05% Tween-20 and 2mM DTT. For the direct binding assay, 10μl of labeled protein at a final concentration of 20nM was mixed with 10μl of test compound and incubated on ice for 10 min. For the competitive assay, 10μl of labeled protein at a final concentration of 20nM was mixed with 2μM cognate peptide substrate at the EC80 concentration determined by prior titration using a 16-point serial dilution by direct-binding MST. For both assays, samples prepared as above were centrifuged at 15000 rpm at 4°C for 10 min and 4μl of the supernatant was loaded into premium glass capillaries (NanoTemper Technologies). MST analysis was performed at MST power of 40% and LED power of 80%, at 22°C temperature using a Monolith NT.115 (NanoTemper Technologies). An initial “Capillary Scan” was performed to scan for fluorescence across the length of the capillary tray to determine the exact position of each capillary before the MST measurement was started. Test compounds were assayed at 16 different concentrations by serial dilution, and data were analysed using NanoTemper analysis software. Kd values were determined using “T-jump + Thermophoresis” settings. The change in thermophoresis between different experimental conditions was expressed as the change in the normalized fluorescence (ΔFnorm), which is defined as Fhot/Fcold (F-values correspond to average fluorescence values between defined areas in the curve under steady-state conditions under control (Fcold) or experimental (Fhot) conditions. Titration of the non-fluorescent ligand causes a gradual change in thermophoresis, which is plotted as ΔFnorm to yield a binding curve, which was then fitted to derive binding constants.

[4] = system: BRCT domain of poly-ADP ribose polymerase; design: method as in Na et al., 2015; details: ref Na et al., 2015; cited from earlier work
[5] = target: T2, human BRCA1 tandem BRCT domain (residues 1646-1859) (human, UniProt P38398-1 1646-1859, NT-647-NHS fluorescent dye (in the MST assays only)); experiment: fluorescence polarisation; 75 nM BRCA1 tBRCT and 10 nM TAMRA-labelled BACH1 peptide, with compound at 125 uM; 20 mM Tris pH 7.4, 200 mM NaCl, 0.05% Tween-20, 2 mM DTT; room temperature; details: both partners purified
T2 construct: BRCA1, human, tandem BRCT domain, residues 1646-1859; Synthetic gene in pET28a, codon optimised for E. coli; No removal of the His tag is described; also called BRCA1 tBRCT; 6x His-BRCA1 tBRCT; source: E. coli BL21(DE3), purified (HisTrap HP, Superdex-75 gel filtration); not shown: His6, N-terminal, kept
T2 sequence (P38398 1646-1859): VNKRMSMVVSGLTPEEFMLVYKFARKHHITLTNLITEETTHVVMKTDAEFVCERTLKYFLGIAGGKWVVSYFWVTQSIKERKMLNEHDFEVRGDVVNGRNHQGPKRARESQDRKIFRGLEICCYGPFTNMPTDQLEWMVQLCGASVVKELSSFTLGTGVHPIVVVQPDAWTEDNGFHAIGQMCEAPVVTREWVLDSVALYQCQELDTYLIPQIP

T1 sequence (P38398 1646-1859): as above

IC50 [3]: 56 µM
Molecule: Cc1nc2cc(C(=O)N3CCN(Cc4ccccc4F)C[C@H]3C(C)C)ccc2[nH]1 [CCBT2905, (R)-(4-(2-fluorobenzyl)-2-isopropylpiperazin-1-yl)(2-methyl-1H-benzo[d]imidazol-5-yl)methanone]

IC50 [3]: 1.7 µM
Molecule: Cc1nc2cc(C(=O)N3CCN(Cc4ccccc4F)C[C@@H]3C(C)C)ccc2[nH]1 [CCBT2906]

IC50 [3]: > 53 µM and ~53 µM
Molecule: Cc1nc2cc(C(=O)N3CCN(Cc4ccccc4F)CC3)ccc2[nH]1 [CCBT2907, (4-(2-fluorobenzyl)piperazin-1-yl)(2-methyl-1H-benzo[d]imidazol-5-yl)methanone]

activity in competitive MST, in words [3]: inactive
Molecule: Cc1nc2cc(CN3CCN(Cc4ccccc4F)CC3)ccc2[nH]1 [CCBT2908, 5-((4-(2-fluorobenzyl)piperazin-1-yl)methyl)-2-methyl-1H-benzo[d]imidazole]

binding result [5]: binds
B1: TAMRA-labelled phosphopeptide from BACH1 (TAMRA_GGSRSTpSPTFNK-NH2) (peptide)
peptide: {TAMRA}-GGSRST[pS]PTFNK-NH2
notes: two added glycines before the BACH1 stretch; stretch around the Ser990 phosphosite; the helicase BRIP1 is meant; also called TAMRA-labeled BACH1 peptide; source: synthetic peptide, bought: Designer Bioscience

The remaining lines, values behind:

Molecule: Cc1nc2cc(C(=O)N3CCN(Cc4ccccc4F)CC3C(C)C)ccc2[nH]1 (stereo not drawn) [CCBT002, (4-(2-fluorobenzyl)-2-isopropylpiperazin-1-yl) (2-methyl-1H-benzo[d]imidazol-5-yl)methanone]
solubility in aqueous buffers [1]: limited solubility
IC50 [2]: 47.3 µM

Molecule: CC(C)c1nc2ccc(C(=O)N3CCN(Cc4ccccc4F)CC3)cc2[nH]1 [CCBT2009, (4-(2-fluorobenzyl)piperazin-1-yl) (2-isopropyl-1H-benzo[d]imidazol-6-yl) methanone]
activity in competitive MST, in words [3]: abrogated activity

Molecule: CC(C)CN1CCN(C(=O)c2ccc3[nH]c(-c4ccccc4)nc3c2)CC1 [CCBT2047, (4-isobutylpiperazin-1-yl)(2-phenyl-1H-benzo[d]imidazol-5-yl) methanone]
activity in competitive MST, in words [3]: abolishes activity

Molecule: O=C(c1ccc2[nH]c(-c3ccncc3)nc2c1)N1CCN(Cc2ccccc2F)CC1 [CCBT2082, (4-(2-fluorobenzyl)piperazin-1-yl)(2-(pyridin-4-yl)-1H-benzo[d]imidazol-5-yl)methanone]
IC50 [3]: 0.315 ± 0.18 µM
decrease in activity relative to Bractoppin ([3]; competitive MST): 5 fold

Molecule: O=C(c1ccc2[nH]c(N3CCOCC3)nc2c1)N1CCN(Cc2ccccc2F)CC1 [CCBT2084, (4-(2-fluorobenzyl)piperazin-1-yl)(2-morpholino-1H-benzo[d]imidazol-5-yl) methanone]
activity in competitive MST, in words [3]: abrogated activity

Molecule: O=C(c1ccc2nc(-c3ccccc3)[nH]c2c1)N1CCN(Cc2ccc(O)cc2)CC1 [CCBT2106, (4-(4-hydroxybenzyl)piperazin-1-yl)(2-phenyl-1H-benzo[d]imidazole-6-yl)methanone]
IC50 [3]: 3.6 µM

Molecule: Cc1ccc(CN2CCN(C(=O)c3ccc4nc(-c5ccccc5)[nH]c4c3)CC2)cc1 [CCBT2107, (4-(4-methylbenzyl)piperazin-1-yl)(2-phenyl-1H-benzo[d]imidazol-6-yl)methanone]
IC50 [3]: 0.3 µM

Molecule: Cc1cc2c(C(C)C)c(O)c(O)c(C=O)c2c(O)c1-c1c(C)cc2c(C(C)C)c(O)c(O)c(C=O)c2c1O [Gossypol]
binding to the BRCT domain of poly-ADP ribose polymerase [4]: reported to bind
